# Data as given in patent publication US10000516B2 (priority 2015, dated 2018).
# Target: T1, Human Factor D (Homo sapiens, UniProt P00746)
# T1 construct: purified from human serum; purchased Complement Technology, Inc; host or cells: human serum (natural protein, not recombinant)
# Assay: Human Factor D assay (Z-L-Lys-SBzl/DTNB, absorbance at 405 nm)
# Assay type: biochemical
# Conditions: not given
# Method: Example 44. Human Factor D Assay
# Human Factor D (purified from human serum, Complement Technology, Inc.) at 80 nM final concentration was incubated with test compound at various concentrations for 5 minutes at room temperature in 50 mM Tris, 1M NaCl, pH 7.5. A synthetic substrate Z-L-Lys-SBzl and DTNB (Ellman's reagent) are added to final concentrations of 100 µM each. Absorbance at 405 nm (A405) was recorded at 30 second intervals for 30 minutes using a microplate spectrophotometer. IC50 values are calculated by nonlinear regression of complement Factor D reaction rates as a function of test compound concentration.
# T1 sequence (P00746 26-253): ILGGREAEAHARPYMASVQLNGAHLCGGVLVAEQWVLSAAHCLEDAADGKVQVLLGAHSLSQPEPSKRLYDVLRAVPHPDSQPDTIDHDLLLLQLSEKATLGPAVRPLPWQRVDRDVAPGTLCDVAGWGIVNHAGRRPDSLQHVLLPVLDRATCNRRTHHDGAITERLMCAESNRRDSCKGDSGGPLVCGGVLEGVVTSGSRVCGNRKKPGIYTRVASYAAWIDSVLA
row,Structure (SMILES),IC50 [nM]
1,"CC(=O)c1cn(CC(=O)N2[C@@H]3CCC[C@@H]3C[C@H]2C(=O)NCc2cccc(Cl)c2F)c2cc(P(=O)(O)O)ccc12 [Compound 7, 3-acetyl-1-(2-((2S,3aR,6aR)-2-(3-chloro-2-fluorobenzylcarbamoyl)hexahydrocyclopenta [b]pyrrol-1(2H)-yl)-2-oxoethyl)-1H-indol-6-ylphosphonic acid]",< 1000
2,"CCCCOP(=O)(OCCCC)c1ccc2c(C(C)=O)cn(CC(=O)N3C[C@H](F)C[C@H]3C(=O)NCc3cccc(Cl)c3F)c2c1 [Compound 20, dibutyl 3-acetyl-1-(2-((2S,4R)-2-(3-chloro-2-fluorobenzylcarbamoyl)-4-fluoropyrrolidin-1-yl)-2-oxoethyl)-1H-indol-6-ylphosphonate]",< 1000

# Same assay, conditions: Table 1; Human Factor D 80 nM, purified from human serum; substrate Z-L-Lys-SBzl; read-out: IC50
row,Structure (SMILES),IC50 [nM]
1,"CCOP(=O)(OCC)c1ccc2c(C(C)=O)cn(CC(=O)N3C[C@H](F)C[C@H]3C(=O)NCc3cccc(Cl)c3F)c2c1 [Compound 1, diethyl 3-acetyl-1-(2-((2S,4R)-2-(3-chloro-2-fluorobenzylcarbamoyl)-4-fluoropyrrolidin-1-yl)-2-oxoethyl)-1H-indol-6-ylphosphonate]",< 1000
2,"CCOP(=O)(O)c1ccc2c(C(C)=O)cn(CC(=O)N3C[C@H](F)C[C@H]3C(=O)NCc3cccc(Cl)c3F)c2c1 [Compound 2, ethyl hydrogen 3-acetyl-1-(2-((2S,4R)-2-(3-chloro-2-fluorobenzylcarbamoyl)-4-fluoropyrrolidin-1-yl)-2-oxoethyl)-1H-indol-6-ylphosphonate]",< 1000
3,"CC(=O)c1cn(CC(=O)N2C[C@H](F)C[C@H]2C(=O)NCc2cccc(Cl)c2F)c2cc(P(=O)(O)O)ccc12 [Compound 3, 3-acctyl-1-(2-((2S,4R)-2-(3-chloro-2-fluorobenzylcarbamoyl)-4-fluoropyrrolidin-1-yl)-2-oxoethyl)-1H-indol-6-ylphosphonic acid]",< 1000
4,"CC(=O)c1cn(CC(=O)N2C[C@H](F)C[C@H]2C(=O)NCc2cccc(Cl)c2F)c2cc(P(=O)(OCOC(=O)OC(C)C)OCOC(=O)OC(C)C)ccc12 [Compound 4, ((3-acetyl-1-(2-((2S,4R)-2-(3-chloro-2-fluorobenzylcarbamoyl)-4-fluoropyrrolidin-1-yl)-2-oxoethyl)-1H-indol-6-yl)phosphoryl)bis(oxy) bis(methylene) isopropyl dicarbonate]",< 1000
5,"CCOP(=O)(OCOC(=O)OC(C)C)c1ccc2c(C(C)=O)cn(CC(=O)N3C[C@H](F)C[C@H]3C(=O)NCc3cccc(Cl)c3F)c2c1 (stereo partly drawn) [Compound 6, ((3-acetyl-1-(2-((2S,4R)-2-(3-chloro-2-fluorobenzylcarbamoyl)-4-fluoropyrrolidin-1-yl)-2-oxoethyl)-1H-indol-6-yl)(ethoxy)phosphoryloxy) methyl isopropyl carbonate]",< 1000
6,"CCOP(=O)(OCC)c1ccc2c(c1)c(C(C)=O)cn2CC(=O)N1C[C@H](F)C[C@H]1C(=O)NCc1cccc(Cl)c1F [Compound 8, diethyl 3-acetyl-1-(2-((2S,4R)-2-(3-chloro-2-fluorobenzylcarbamoyl)-4-fluoropyrrolidin-1-yl)-2-oxoethyl)-1H-indol-5-ylphosphonate]",< 1000
7,"CCOP(=O)(O)c1ccc2c(c1)c(C(C)=O)cn2CC(=O)N1C[C@H](F)C[C@H]1C(=O)NCc1cccc(Cl)c1F [Compound 9, ethyl hydrogen 3-acetyl-1-(2-((2S,4R)-2-(3-chloro-2-fluorobenzylcarbamoyl)-4-fluoropyrrolidin-1-yl)-2-oxoethyl)-1H-indol-5-ylphosphonate]",> 10000
8,"CC(=O)c1cn(CC(=O)N2C[C@H](F)C[C@H]2C(=O)NCc2cccc(Cl)c2F)c2ccc(P(=O)(O)O)cc12 [Compound 10, 3-acetyl-1-(2-((2S,4R)-2-(3-chloro-2-fluorobenzylcarbamoyl)-4-fluoropyrrolidin-1-yl)-2-oxoethyl)-1H-indol-5-ylphosphonic acid]",< 1000
9,"CCOC(=O)c1nn(CC(=O)N2C[C@H](F)C[C@H]2C(=O)NCc2cccc(Cl)c2F)c2cc(P(=O)(OCC)OCC)ccc12 [Compound 11, ethyl 1-(2-((2S,4R)-2-(3-chloro-2-fluorobenzylcarbamoyl)-4-fluoropyrrolidin-1-yl)-2-oxoethyl)-6-(diethoxyphosphoryl)-1H-indazole-3-carboxylate]",> 10000
10,"CCOP(=O)(OCC)c1ccc2c(C(=O)O)nn(CC(=O)N3C[C@H](F)C[C@H]3C(=O)NCc3cccc(Cl)c3F)c2c1 [Compound 12, 1-(2-((2S,4R)-2-(3-chloro-2-fluorobenzylcarbamoyl)-4-fluoropyrrolidin-1-yl)-2-oxoethyl)-6-(diethoxyphosphoryl)-1H-indazole-3-carboxylic acid]",> 10000
11,"CCOP(=O)(OCC)c1ccc2c(C(=O)OC)cn(CC(=O)N3C[C@H](F)C[C@H]3C(=O)NCc3cccc(Cl)c3F)c2c1 [Compound 13, methyl 1-(2-((2S,4R)-2-(3-chloro-2-fluorobenzylcarbamoyl)-4-fluoropyrrolidin-1-yl)-2-oxoethyl)-6-(diethoxyphosphoryl)-1H-indole-3-carboxylate]",< 1000
12,"COC(=O)c1cn(CC(=O)N2C[C@H](F)C[C@H]2C(=O)NCc2cccc(Cl)c2F)c2cc(P(=O)(O)O)ccc12 [Compound 14, 1-(2-((2S,4R)-2-(3-chloro-2-fluorobenzylcarbamoyl)-4-fluoropyrrolidin-1-yl)-2-oxoethyl)-3-(methoxycarbonyl)-1H-indol-6-ylphosphonic acid]",< 1000
13,"CCOP(=O)(OCC)c1ccc2c(C(N)=O)cn(CC(=O)N3C[C@H](F)C[C@H]3C(=O)NCc3cccc(Cl)c3F)c2c1 [Compound 15, diethyl 3-carbamoyl-1-(2-((2S,4R)-2-(3-chloro-2-fluorobenzylcarbamoyl)-4-fluoropyrrolidin-1-yl)-2-oxoethyl)-1H-indol-6-ylphosphonate]",< 1000
14,"NC(=O)c1cn(CC(=O)N2C[C@H](F)C[C@H]2C(=O)NCc2cccc(Cl)c2F)c2cc(P(=O)(O)O)ccc12 [Compound 16, 3-carbamoyl-1-(2-((2S,4R)-2-(3-chloro-2-fluorobenzylcarbamoyl)-4-fluoropyrrolidin-1-yl)-2-oxoethyl)-1H-indol-6-ylphosphonic acid]",< 1000
15,"CCOP(=O)(OCC)c1ccc2c(C(N)=O)nn(CC(=O)N3C[C@H](F)C[C@H]3C(=O)NCc3cccc(Cl)c3F)c2c1 [Compound 17, diethyl 3-carbamoyl-1-(2-((2S,4R)-2-(3-chloro-2-fluorobenzylcarbamoyl)-4-fluoropyrrolidin-1-yl)-2-oxoethyl)-1H-indazol-6-ylphosphonate]",< 1000
16,"NC(=O)c1nn(CC(=O)N2C[C@H](F)C[C@H]2C(=O)NCc2cccc(Cl)c2F)c2cc(P(=O)(O)O)ccc12 [Compound 18, 3-carbamoyl-1-(2-((2S,4R)-2-(3-chloro-2-fluorobenzylcarbamoyl)-4-fluoropyrrolidin-1-yl)-2-oxoethyl)-1H-indazol-6-ylphosphonic acid]",< 1000
17,"CC(=O)c1cn(CC(=O)N2C[C@H](F)C[C@H]2C(=O)NCc2cccc(Cl)c2F)c2cc(P(=O)(OCC(F)(F)F)OCC(F)(F)F)ccc12 [Compound 19, bis(2,2,2-trifluoroethyl) 3-acetyl-1-(2-((2S,4R)-2-(3-chloro-2-fluorobenzylcarbamoyl)-4-fluoropyrrolidin-1-yl)-2-oxoethyl)-1H-indol-6-ylphosphonate]",< 1000
18,"CCCCOP(=O)(O)c1ccc2c(C(C)=O)cn(CC(=O)N3C[C@H](F)C[C@H]3C(=O)NCc3cccc(Cl)c3F)c2c1 [Compound 21, butyl hydrogen 3-acetyl-1-(2-((2S,4R)-2-(3-chloro-2-fluorobenzylcarbamoyl)-4-fluoropyrrolidin-1-yl)-2-oxoethyl)-1H-indol-6-ylphosphonate]",< 1000
19,"CC(=O)c1cn(CC(=O)N2C[C@H](F)C[C@H]2C(=O)NCc2cccc(Cl)c2F)c2cc(P(=O)(O)OCOC(=O)OC(C)C)ccc12 [Compound 22, ((3-acetyl-1-(2-((2S,4R)-2-(3-chloro-2-fluorobenzylcarbamoyl)-4-fluoropyrrolidin-1-yl)-2-oxoethyl)-1H-indol-6-yl)(hydroxy)phosphoryloxy) methyl isopropyl carbonate]",< 1000
20,"CCOP(=O)(c1ccccc1)c1ccc2c(C(C)=O)cn(CC(=O)N3C[C@H](F)C[C@H]3C(=O)NCc3cccc(Cl)c3F)c2c1 (stereo partly drawn) [Compound 23, ethyl 3-acetyl-1-(2-((2S,4R)-2-(3-chloro-2-fluorobenzylcarbamoyl)-4-fluoropyrrolidin-1-yl)-2-oxoethyl)-1H-indol-6-yl(phenyl)phosphinate]",< 1000
21,"CCOP(=O)(CC)c1ccc2c(C(C)=O)cn(CC(=O)N3C[C@H](F)C[C@H]3C(=O)NCc3cccc(Cl)c3F)c2c1 (stereo partly drawn) [Compound 24, ethyl 3-acetyl-1-(2-((2S,4R)-2-(3-chloro-2-fluorobenzylcarbamoyl)-4-fluoropyrrolidin-1-yl)-2-oxoethyl)-1H-indol-6-yl(ethyl)phosphinate]",< 1000
22,"CC(=O)c1cn(CC(=O)N2C[C@H](F)C[C@H]2C(=O)NCc2cccc(Cl)c2F)c2cc(P(=O)(O)c3ccccc3)ccc12 [Compound 25, 3-acetyl-1-(2-((2S,4R)-2-(3-chloro-2-fluorobenzylcarbamoyl)-4-fluoropyrrolidin-1-yl)-2-oxoethyl)-1H-indol-6-yl(phenyl)phosphinic acid]",< 1000
23,"CC(=O)c1cn(CC(=O)N2C[C@H](F)C[C@H]2C(=O)NCc2cccc(Cl)c2F)c2cc(P(=O)(OCOC(=O)C(C)(C)C)OCOC(=O)C(C)(C)C)ccc12 [Compound 26, ((3-acetyl-1-(2-((2S,4R)-2-(3-chloro-2-fluorobenzylcarbamoyl)-4-fluoropyrrolidin-1-yl)-2-oxoethyl)-1H-indol-6-yl)phosphoryl)bis(oxy)bis (methylene) bis(2,2-dimethylpropanoate)]",< 1000
